Experimental data as given in patent US10167262B2, “Herbicidal substituted 3-arylpyrazoles” (FMC CORPORATION, priority 2014, dated 2019).

Experiments:
Assay type in all cases: in vivo
kochia (Kochia scoparia) = experiment: Test C postemergence greenhouse test, plant response rating 0-100; settings: for Plant response rating, Kochia: scale 0 to 100
Summary of the method: (§1)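 Each weed species was grown in potting medium and sprayed after emergence, when 2–18 cm tall. Ratings, made by eye relative to control pots, were recorded 13–15 days later using a scale where 0 is no effect.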

[1] = tested on: chickweed (common chickweed, Stellaria media); experiment: as above; settings: for Plant response rating, Chickweed: scale 0 to 100
Summary of the method: as §1

wild oat (Avena fatua) = experiment: as above; settings: for Plant response rating, Oat, Wild: scale 0 to 100
Summary of the method: as §1

corn (Zea mays) = experiment: Test C pre-/postemergence greenhouse test, plant response rating 0-100; settings: Postemergence; for Plant response rating, Corn: scale 0 to 100
Summary of the method: (§2)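 Greenhouse test. Preemergence: seed in loam:sand, sprayed with formulated chemical (solvent + surfactant). Postemergence: 1–4 leaf plants, 2–18 cm, peat-based potting medium. Hold 13–15 d; score visually, 0 (none) to 100 (complete control); dash = not tested.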

soybean (Glycine max) = experiment: as above
Summary of the method: as §2

[2] = tested on: blackgrass (Alopecurus myosuroides); experiment: as above; settings: Postemergence; for Plant response rating, Blackgrass: scale 0 to 100
Summary of the method: as §2

[3] = tested on: yellow nutsedge (Cyperus esculentus); experiment: as above; settings: Postemergence; for Plant response rating, Nutsedge, Yellow: scale 0 to 100
Summary of the method: as §2

[4] = tested on: large (Lg) crabgrass (Digitaria sanguinalis); experiment: as above; settings: Postemergence; for Plant response rating, Crabgrass, Large: scale 0 to 100
Summary of the method: as §2

[5] = tested on: johnsongrass (Sorghum halepense); experiment: as above; settings: Postemergence; for Plant response rating, Johnsongrass: scale 0 to 100
Summary of the method: as §2

[6] = tested on: oilseed rape (Brassica napus); experiment: as above; settings: Postemergence; for Plant response rating, Oilseed Rape: scale 0 to 100
Summary of the method: as §2

[7] = tested on: giant foxtail (Setaria faberii); experiment: as above; settings: Postemergence; for Plant response rating, Foxtail, Giant: scale 0 to 100
Summary of the method: as §2

[8] = tested on: lambsquarters (Chenopodium album); experiment: as above; settings: Postemergence; for Plant response rating, Lambsquarters: scale 0 to 100
Summary of the method: as §2

[9] = tested on: pigweed (Amaranthus retroflexus); experiment: as above; settings: Postemergence; for Plant response rating, Pigweed: scale 0 to 100
Summary of the method: as §2

[10] = tested on: winter wheat (Triticum aestivum); experiment: as above
Summary of the method: as §2

[11] = Postemergence, 250 g ai/ha, scale 0 to 100
[12] = Postemergence, 500 g ai/ha, scale 0 to 100

O=C(c1ccccc1)c1cn(S(=O)(=O)CCl)nc1-c1cc(Cl)cc(Cl)c1 [Compound 1]
0: Plant response rating (0 to 100), Oat, Wild (wild oat (Avena fatua); 62 g ai/ha) | Plant response rating (0 to 100), Oat, Wild (wild oat (Avena fatua); 125 g ai/ha) | Plant response rating, Oat, Wild (wild oat (Avena fatua); 250 g ai/ha) | Plant response rating (0 to 100), Corn (corn (Zea mays); 31 g ai/ha) | Plant response rating (0 to 100), Corn (corn (Zea mays); 62 g ai/ha) | Plant response rating (0 to 100), Corn (corn (Zea mays); 125 g ai/ha) | Plant response rating, Corn (corn (Zea mays); 250 g ai/ha) | Plant response rating (0 to 100), Soybean (soybean (Glycine max); Postemergence, 62 g ai/ha) | Plant response rating (0 to 100), Soybean (soybean (Glycine max); Postemergence, 125 g ai/ha) | Plant response rating, Soybean (soybean (Glycine max); [11]) | Plant response rating (0 to 100), Blackgrass ([2]; 31 g ai/ha) | Plant response rating (0 to 100), Blackgrass ([2]; 62 g ai/ha) | Plant response rating, Blackgrass ([2]; 125 g ai/ha) | Plant response rating, Blackgrass ([2]; 250 g ai/ha) | Plant response rating (0 to 100), Nutsedge, Yellow ([3]; 62 g ai/ha) | Plant response rating (0 to 100), Nutsedge, Yellow ([3]; 125 g ai/ha) | Plant response rating (0 to 100), Crabgrass, Large ([4]; 31 g ai/ha) | Plant response rating (0 to 100), Crabgrass, Large ([4]; 62 g ai/ha) | Plant response rating (0 to 100), Crabgrass, Large ([4]; 125 g ai/ha) | Plant response rating, Crabgrass, Large ([4]; 250 g ai/ha) | Plant response rating (0 to 100), Johnsongrass ([5]; 62 g ai/ha) | Plant response rating (0 to 100), Johnsongrass ([5]; 125 g ai/ha) | Plant response rating, Johnsongrass ([5]; 250 g ai/ha) | Plant response rating (0 to 100), Foxtail, Giant ([7]; 31 g ai/ha) | Plant response rating (0 to 100), Foxtail, Giant ([7]; 62 g ai/ha) | Plant response rating (0 to 100), Foxtail, Giant ([7]; 125 g ai/ha) | Plant response rating, Foxtail, Giant ([7]; 250 g ai/ha) | Plant response rating (0 to 100), Wheat ([10]; Postemergence, 62 g ai/ha) | Plant response rating (0 to 100), Wheat ([10]; Postemergence, 125 g ai/ha) | Plant response rating, Wheat [10, 11]
100: Plant response rating (0 to 100), Chickweed ([1]; 62 g ai/ha) | Plant response rating (0 to 100), Chickweed ([1]; 125 g ai/ha) | Plant response rating, Chickweed ([1]; 250 g ai/ha) | Plant response rating (0 to 100), Pigweed ([9]; 125 g ai/ha) | Plant response rating, Pigweed ([9]; 250 g ai/ha)
85: Plant response rating (0 to 100), Kochia (kochia (Kochia scoparia); 125 g ai/ha) | Plant response rating (0 to 100), Lambsquarters ([8]; 125 g ai/ha) | Plant response rating, Lambsquarters ([8]; 250 g ai/ha)
80: Plant response rating (0 to 100), Kochia (kochia (Kochia scoparia); 62 g ai/ha) | Plant response rating (0 to 100), Oilseed Rape ([6]; 125 g ai/ha)
70: Plant response rating (0 to 100), Lambsquarters ([8]; 62 g ai/ha)
95: Plant response rating, Oilseed Rape ([6]; 250 g ai/ha)
50: Plant response rating (0 to 100), Oilseed Rape ([6]; 62 g ai/ha)
98: Plant response rating (0 to 100), Pigweed ([9]; 62 g ai/ha)
10: Plant response rating, Nutsedge, Yellow ([3]; 250 g ai/ha)
90: Plant response rating, Kochia (kochia (Kochia scoparia); 250 g ai/ha) | Plant response rating (0 to 100), Chickweed ([1]; 31 g ai/ha)

O=C(c1ccccc1)c1cn(S(=O)(=O)C(F)(F)F)nc1-c1cc(Cl)cc(Cl)c1 [Compound 2]
85: Plant response rating (0 to 100), Kochia (kochia (Kochia scoparia); 125 g ai/ha) | Plant response rating (0 to 100), Lambsquarters ([8]; 62 g ai/ha) | Plant response rating (0 to 100), Lambsquarters ([8]; 125 g ai/ha) | Plant response rating, Lambsquarters ([8]; 250 g ai/ha)
98: Plant response rating (0 to 100), Chickweed ([1]; 62 g ai/ha) | Plant response rating, Pigweed ([9]; 250 g ai/ha)
0: Plant response rating (0 to 100), Oat, Wild (wild oat (Avena fatua); 62 g ai/ha) | Plant response rating (0 to 100), Oat, Wild (wild oat (Avena fatua); 125 g ai/ha) | Plant response rating, Oat, Wild (wild oat (Avena fatua); 250 g ai/ha) | Plant response rating, Oat, Wild (wild oat (Avena fatua); 500 g ai/ha) | Plant response rating (0 to 100), Corn (corn (Zea mays); 62 g ai/ha) | Plant response rating (0 to 100), Corn (corn (Zea mays); 125 g ai/ha) | Plant response rating, Corn (corn (Zea mays); 250 g ai/ha) | Plant response rating, Corn (corn (Zea mays); 500 g ai/ha) | Plant response rating (0 to 100), Soybean (soybean (Glycine max); Postemergence, 62 g ai/ha) | Plant response rating (0 to 100), Soybean (soybean (Glycine max); Postemergence, 125 g ai/ha) | Plant response rating, Soybean (soybean (Glycine max); [11]) | Plant response rating, Soybean (soybean (Glycine max); Preemergence, 0 to 100 scale (0 no effect, 100 complete control), rate 500 g ai/ha per head r3, sub-head of this section not shown) | Plant response rating (0 to 100), Blackgrass ([2]; 62 g ai/ha) | Plant response rating, Blackgrass ([2]; 125 g ai/ha) | Plant response rating, Blackgrass ([2]; 250 g ai/ha) | Plant response rating, Blackgrass ([2]; 500 g ai/ha) | Plant response rating (0 to 100), Nutsedge, Yellow ([3]; 62 g ai/ha) | Plant response rating (0 to 100), Nutsedge, Yellow ([3]; 125 g ai/ha) | Plant response rating, Nutsedge, Yellow ([3]; 250 g ai/ha) | Plant response rating, Nutsedge, Yellow ([3]; 500 g ai/ha) | Plant response rating (0 to 100), Crabgrass, Large ([4]; 62 g ai/ha) | Plant response rating (0 to 100), Crabgrass, Large ([4]; 125 g ai/ha) | Plant response rating, Crabgrass, Large ([4]; 250 g ai/ha) | Plant response rating, Crabgrass, Large ([4]; 500 g ai/ha) | Plant response rating (0 to 100), Johnsongrass ([5]; 62 g ai/ha) | Plant response rating (0 to 100), Johnsongrass ([5]; 125 g ai/ha) | Plant response rating, Johnsongrass ([5]; 250 g ai/ha) | Plant response rating, Johnsongrass ([5]; 500 g ai/ha) | Plant response rating (0 to 100), Foxtail, Giant ([7]; 62 g ai/ha) | Plant response rating (0 to 100), Foxtail, Giant ([7]; 125 g ai/ha) | Plant response rating, Foxtail, Giant ([7]; 250 g ai/ha) | Plant response rating, Foxtail, Giant ([7]; 500 g ai/ha) | Plant response rating (0 to 100), Wheat ([10]; Postemergence, 62 g ai/ha) | Plant response rating (0 to 100), Wheat ([10]; Postemergence, 125 g ai/ha) | Plant response rating, Wheat [10, 11] | Plant response rating, Wheat [10, 12] | Plant response rating, Wheat ([10]; Preemergence, 0 to 100 scale (0 no effect, 100 complete control), rate 500 g ai/ha)
100: Plant response rating (0 to 100), Chickweed ([1]; 125 g ai/ha) | Plant response rating, Chickweed ([1]; 250 g ai/ha) | Plant response rating, Chickweed ([1]; 500 g ai/ha) | Plant response rating, Pigweed ([9]; 500 g ai/ha)
5: Plant response rating, Soybean (soybean (Glycine max); [12])
95: Plant response rating, Kochia (kochia (Kochia scoparia); 500 g ai/ha)
70: Plant response rating (0 to 100), Oilseed Rape ([6]; 62 g ai/ha) | Plant response rating (0 to 100), Oilseed Rape ([6]; 125 g ai/ha)
90: Plant response rating, Kochia (kochia (Kochia scoparia); 250 g ai/ha) | Plant response rating, Oilseed Rape ([6]; 250 g ai/ha) | Plant response rating, Oilseed Rape ([6]; 500 g ai/ha) | Plant response rating, Lambsquarters ([8]; 500 g ai/ha) | Plant response rating (0 to 100), Pigweed ([9]; 62 g ai/ha) | Plant response rating (0 to 100), Pigweed ([9]; 125 g ai/ha)
80: Plant response rating (0 to 100), Kochia (kochia (Kochia scoparia); 62 g ai/ha)
